In patent US11046651B2, “Piperazine substituted azapine derivatives and uses thereof” (Alairion, Inc., priority 2019, dated 2021):

Assays:
5-HT2C = 5-HT2C (Homo sapiens (Human), UniProt P28335); assay: 5-HT2C binding assay ([3H]-Mesulergine, HEK293 membranes); conditions: numeric values
Procedure: 5-HT2C Binding Assay Protocol
The testing compounds were diluted with DMSO, starting at 2 mM, with 8-points and 5-fold serial dilutions.
1 μL of a compound of the present disclosure the reference compound (Table J) was transferred to an assay plate. […] 1 μL of DMSO was transferred to an assay plate according to the plate map for total binding (High control: HC).
(§1) Unifilter-96 GF/C filter plates were soaked with 50 μL of 0.3% PEI per well for about 0.5 hours at room temperature. When the binding assays were complete, the reaction mixture was filtered through the GF/C filter plates using Perkin Elmer Filtermate Harvester, and each plate was washed 4 times with cold wash buffer. The filter plates were dried for 1 hour at 50° C. After drying, the bottom of the filter plate wells were sealed using Perkin Elmer Unifilter-96 backing seal tape. 50 μL of Perkin Elmer Microscint 20 cocktail was added. The top of the filter plates were sealed with Perkin Elmer TopSeal-A sealing film.
^3H trapped on filters were counted using Perkin Elmer MicroBeta2 Reader. Inhibition constants were calculated using the following equation:
[formula] The data was analyzed using Prism 5. The model used was “log(inhibitor) vs. response—Variable slope” to fit the data and calculate IC50. The IC50 was then converted to Ki using the following equation: Ki=IC50/(1+L/Kd), wherein L is the radioligand concentration in the reaction system; Kd is the affinity of radioligand to the receptor.

D2 = D2 (Homo sapiens (Human), UniProt P14416); assay: D2 binding assay ([3H] 7-OH-DPAT, HEK293 D2L membranes); conditions: numeric values
Sequence of D2 (P14416 whole entry): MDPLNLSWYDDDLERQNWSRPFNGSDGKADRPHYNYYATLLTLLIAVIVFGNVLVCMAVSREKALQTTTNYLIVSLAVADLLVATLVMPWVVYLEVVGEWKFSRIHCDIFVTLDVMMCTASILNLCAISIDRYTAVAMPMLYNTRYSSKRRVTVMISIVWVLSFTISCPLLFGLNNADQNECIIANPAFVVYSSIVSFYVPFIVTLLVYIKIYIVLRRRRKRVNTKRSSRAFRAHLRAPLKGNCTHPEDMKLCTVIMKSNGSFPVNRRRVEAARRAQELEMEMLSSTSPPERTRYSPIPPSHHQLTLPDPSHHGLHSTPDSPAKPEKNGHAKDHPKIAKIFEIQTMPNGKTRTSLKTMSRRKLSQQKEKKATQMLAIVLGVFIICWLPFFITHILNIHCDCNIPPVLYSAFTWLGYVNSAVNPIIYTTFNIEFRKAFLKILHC
Procedure: D2 Binding Assay Protocol
The testing compounds were diluted with DMSO, starting at 2 mM, with 8-points and 5-fold serial dilutions. droperidol was diluted with DMSO, starting at 0.2 mM, with 8-points and 4-fold serial dilutions.
1 μL of a compound of the present disclosure and the reference compound (Table O) was transferred to an assay plate. 1 μL of droperidol was transferred to an assay plate according to the plate map for nonspecific binding (Low control: LC). 1 μL of DMSO was transferred to an assay plate according to the plate map for total binding (High control: HC). Following a plate map, 100 μL of the membrane stock solutions and radio ligand were added into the plate. The plates were sealed and shaken with 300 rpm.
as §1, with “the GF/B” for “the GF/C”
^3H trapped on filters were counted using Perkin Elmer MicroBeta2 Reader. Inhibition constants were calculated using the following equation: […]
The data was analyzed using Prism 5. The model used was “log(inhibitor) vs. response—Variable slope” to fit the data and calculate IC50. The IC50 was then converted to Ki using the following equation: Ki=IC50/(1+L/Kd), wherein L is the radioligand concentration in the reaction system; Kd is the affinity of radioligand to the receptor. As shown in Table Q Compound No. 7 has a lower affinity for D2 when compared to Compounds A-2, A-3, A-4, and A-5.

Sequence of 5-HT2C (P28335 33-458): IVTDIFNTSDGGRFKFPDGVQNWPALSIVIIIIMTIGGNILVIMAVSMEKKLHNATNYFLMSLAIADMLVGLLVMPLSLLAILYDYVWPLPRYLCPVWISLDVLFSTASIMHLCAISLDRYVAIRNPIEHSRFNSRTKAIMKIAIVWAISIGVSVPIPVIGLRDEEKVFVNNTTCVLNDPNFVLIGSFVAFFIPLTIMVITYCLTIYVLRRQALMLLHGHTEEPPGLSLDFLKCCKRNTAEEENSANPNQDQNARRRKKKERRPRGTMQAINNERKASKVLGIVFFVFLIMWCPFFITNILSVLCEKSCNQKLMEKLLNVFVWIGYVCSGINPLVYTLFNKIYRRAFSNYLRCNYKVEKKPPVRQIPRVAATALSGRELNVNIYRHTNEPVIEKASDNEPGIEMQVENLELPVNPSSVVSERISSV

## Cc1ccc2c(c1)N=C(N1CCN(CC(C)(C)C(=O)O)CC1)c1cc(C)ccc1O2 [A-2, 3-(4-(2,8-dimethyldibenzo[b,f][1,4]oxazepin-11-yl)piperazin-1-yl)-2,2-dimethylpropanoic acid, reference compound]
5-HT2C
  Ki: 265 nM
D2
  Ki: 60 nM
